Experiment: Hepatic first-pass effect / hepatic clearance rate (jugular vs pyloric vein AUC0-t) in inflamed rats
Type: in vivo, Sprague-Dawley rats
Conditions: inflamed rats (G5, n = 5), oral HLJDD; HCR% = 100×(AUC0−t pyloric vein − AUC0−t jugular vein)/AUC0−t pyloric vein
Experimental: For the PK-PD analysis, cannulas were implanted in each rat’s jugular vein (n = 22). To study the hepatic first-pass effect (HFPE), the jugular vein and the pyloric vein of each rat (n = 5) were cannulated according to the method described by Hye J. Chung et al. with slight modifications. Instead of the portal vein, the pyloric vein was cannulated to minimize the interference of blood flow in the portal vein [41]. The surgery was performed under anesthesia (3% chloral hydrate solution, intraperitoneal injection; 3.5 mL/kg) 5 days prior to the experiment. Rats with jugular vein intubation surgery were divided into four groups: a control group with HLJDD (G1, n = 6), aninflammatory group with HLJDD (G2, n = 6), aninflammatory group with physiological saline (G3, n = 5) and another inflammatory group with HLJDD (G4, n = 5). G1 and G2 were used for the pharmacokinetic study, while G3 and G4 were used for the pharmacodynamic study. Rats with jugular and pyloric vein cannulation for HFPE analysis were assigned to another inflammatory group with HLJDD (G5, n = 5).
The prepared HLJDD-EP solution was administered to the rats (G1, G2, G4 and G5) at 2 mL/100g body weight (crude material content: 3.5 g/kg) by oral gavage, and the G3 group was given the same volume of physiological saline. In the G1 and G2 groups, blood specimens (300 μL) were obtained before dosing and subsequently at 5 min, 10 min, 30 min, 1, 2, 4, 6, 8, 12, 24, 36 and 48 h after the oral administration of HLJDD-EP solution. In the G3 and G4 groups, blood samples (300 μL) were collected prior to dosing and followed at 10 min, 30 min, 1, 2, 4, 8, 24 and 48 h after drug administration. The rectal temperature of rats in the G3 and G4 groups was immediately monitored after each collection of blood. For the HFPE assay, blood specimens (150 μL) from both the jugular vein and the pyloric vein of the G5 rats were simultaneously taken before dosing and subsequently at 5 min, 10 min, 30 min, 1, 2, 4, 6, 8, 12, 24, 36 and 48 h after oral administration. Samples were collected in heparinized Eppendorf tubes and centrifuged at 3000 rpm for 15 min. The plasma was stored at -80°C until assay.
For the pharmacokinetic investigation and HFPE analysis, 100 μL aliquots of plasma were mixed with 5 μL of ascorbic acid (dissolved in physiological saline, w/v: 1 g/100 mL) and 200 μL of methanol (containing an internal standard stock solution with 80.0 ng/mL swertiamarin, 1.5 ng/mL corynoline and 33.0 ng/mL icariin), followed by vortexing and centrifuging at 15000 rpm for 20 min to remove the precipitate. The supernatant was dried with nitrogen at 40°C. […] The supernatant was analyzed using Agilent 1290 ultra-high performance liquid chromatography coupled with an Agilent 6490 Triple Quadrupole Mass Spectrometer (Agilent Technologies, Palo Alto, CA, USA).
Pharmacokinetic parameters of the determined compounds were processed by the non-compartmental method using Phoenix Winnonlin software (Pharsight Corporation, USA). […] The mean residence time (MRT) was determined as AUMC/AUC. The plasma half-life (HLλz), maximum plasma concentration (Cmax), the time to reach Cmax (Tmax) and other parameters following the administration of HLJDD were determined from the observed data. […] Concentrations of cytokines were analyzed by cytometric bead array software (FCAP Array version 3.0, BD Bioscience). All the data were expressed as the mean±standard deviation (SD). […]

| Structure (SMILES) | hepatic clearance rate (HCR) |
| --- | --- |
| COC(=O)C1=CO[C@@H](O[C@@H]2O[C@H](CO)[C@@H](O)[C@H](O)[C@H]2O)[C@@H]2C(CO)=C[C@@H](O)[C@H]12 [I2, scandoside methyl ester] | approximately zero |
| COc1cc(O[C@@H]2O[C@H](C(=O)O)[C@@H](O)[C@H](O)[C@H]2O)c2c(=O)cc(-c3ccccc3)oc2c1O[C@@H]1O[C@H](C(=O)O)[C@@H](O)[C@H](O)[C@H]1O [F4, 5,8-dihyroxy-7-methoxy flavone-5,8-di-O-glucuronide] | approximately zero |
| COC(=O)C1=CO[C@@H](O[C@@H]2O[C@H](CO)[C@@H](O)[C@H](O)[C@H]2O)[C@H]2[C@@H]1C=C[C@@]2(O)CO [I1, gardenoside] | -43.7% |
